Holding throughout (format): cell-based
Experiment [1] has as its system human gastric cancer cell (KATO III). Description: Cell proliferation inhibition, MTS method, human gastric cancer cell KATO III. On the procedure: (§1) The test solution was prepared by dissolving the (compound 1) into the DMSO (dimethylsulfoxide) with the concentration of 8 mg/ml.
(§2) The test was implemented by using the human lung cancer cell (LU99), two kind of the human gastric cancer cell (KATO III, MKN-45), the human prostate cancer cell (DU145), the human malignant melanoma cell (G-361), the human bladder cancer cell (T24), two kind of the human lymphoma cell (U937, Jurkat E6.1) and the human leukemia cell (HL60) as the cancer cell.
(§3) These cells were suspended in the each culture medium that the serum of 10% was added, and were dispensed in 96-well plate. And then, these were cultured in 5% CO2 at 37 degrees centigrade during a night. The test solution was prepared in the culture medium to the various concentrations, and was dispensed into the plate that the cells were set preliminarily. And further, these were cultured in 5% CO2 at 37 degrees centigrade for three days.
(§4) The cell proliferation after the medicine addition was measured on the 3rd day from the 1st day after the medicine addition by the MTS method (Kit for cell proliferation test manufactured by Promega Company, Cell Titer 96 Aqueous One Solution Cell Proliferation Assay).
(§5) The inhibition rate (%) of the cell proliferation was obtained from the measured MTS value by the following formula.
(§6) Inhibition rate(%)=(1−MTS value of medicine addition group/MTS value of medicine non-addition group)×100
(§7) Because the value which was obtained by the above-mentioned formula represents the inhibition rate of the cell proliferation, the higher the numerical value is, the higher the medicine effect is. It is deemed that the one whose value is 50% or more has the medicine effect.
(§8) The (compound 2) was prepared as the test solution, and the inhibition rate of the cell proliferation was measured by the method similar to the embodiment 7.

Experiment [2] deals with human lymphoma cell (U937). Description: Cell proliferation inhibition, MTS method, human lymphoma cell U937. On the procedure: as §1, §2, §3, §4, §5, §6, §7, §8
Experiment [3] relates to human lymphoma cell (Jurkat E6.1). Description: Cell proliferation inhibition, MTS method, human lymphoma cell Jurkat E6.1. On the procedure:
as §1, §2, §3, §4, §5, §6, §7

Experiment [4] deals with human leukemia cell (HL60). Nature of the experiment: Cell proliferation inhibition, MTS method, human leukemia cell HL60. On the procedure:
as §1, §2, §3, §4, §5, §6, §7

For experiment [5], the system named is human prostate cancer cell (DU145). Nature of the experiment: Cell proliferation inhibition, MTS method, human prostate cancer cell DU145. The method, then:
as §2, §3, §4, §5, §6, §7, §8

Experiment [6] concerns human bladder cancer cell (T24). Nature of the experiment: Cell proliferation inhibition, MTS method, human bladder cancer cell T24. On the procedure:
as §2, §3, §4, §5, §6
Because the value which was obtained by the above-mentioned formula represents the inhibition rate of the cell proliferation, the higher the numerical value is, the higher the medicine effect is. It is deemed that the one whose value is 50% or more has the medicine effect. […]

The test system of experiment [7] is human lung cancer cell (LU99). Nature of the experiment: Cell proliferation inhibition, MTS method, human lung cancer cell LU99. On the procedure: as §2, §3, §4, §5, §6, §7
(§9) The (compound 5) was prepared as the test solution, and the inhibition rate of the cell proliferation was measured by the method similar to the embodiment 7.
(§10) The (compound 6) was prepared as the test solution, and the inhibition rate of the cell proliferation was measured by the method similar to the embodiment 7.

Experiment [8] deals with human gastric cancer cell (MKN-45). Description: Cell proliferation inhibition, MTS method, human gastric cancer cell MKN-45. On the procedure: as §2, §3, §4, §5, §6, §7, §9, §10
Experiment [9] has as its system human malignant melanoma cell (G-361). Description: Cell proliferation inhibition, MTS method, human malignant melanoma cell G-361. The method, then:
as §2, §3, §4, §5, §6, §7, §9, §10

The values that follow come from patent publication US20140221475A1, “PLATINUM(IV) COMPLEXES AND PHARMACEUTICAL COMPOSITION CONTAINING THE SAME” (UNITECH CO., LTD., priority 2011, published 2014).

Molecules are shown by their SMILES.

Take `NC1CCCC12CCCC2N.O=C1CC(=O)[O][Pt]([Cl])([Cl])[O]1` [Compound 1, dichloromalonato((1S,5S,6S)-spiro[4.4]nonane-1,6-diamine)platinum(IV)]: the “Inhibition rate of cell proliferation after 3 days from medicine addition” value (“Inhibition rate of cell proliferation” below) in experiment [1] (5 μg/ml) is 53%; in [1] (10 μg/ml), 75%; in [1] (20 μg/ml) it was 88%; in experiment [2] (U937, 5 μg/ml) it was 98%; in experiment [2] (U937, 10 μg/ml) it was 102%; in experiment [2] (U937, 20 μg/ml), 101%. Also, the “Inhibition rate of cell proliferation” value in [3] (Jurkat E6.1, 5 μg/ml) is listed as 92%; in [3] (Jurkat E6.1, 10 μg/ml) it was 97%; in [3] (Jurkat E6.1, 20 μg/ml), 100%; in experiment [4] (HL60, 5 μg/ml) it was 91%; in [4] (HL60, 10 μg/ml) it was 97%; in [4] (HL60, 20 μg/ml), 99%.

`NC1CCCC12CCCC2N.O=C1CC(=O)[O][Pt]([Cl])([Cl])[O]1` [Compound 2, Dichloro complexes (G) of the malonato((R,R,R)-spiro[4,4]nonane-1,6-diamine)platinum(IV)]: the “Inhibition rate of cell proliferation” value in [1] (5 μg/ml) was determined as 78%; in [1] (10 μg/ml), 90%; in [1] (20 μg/ml) it was 82%; in experiment [2] (U937, 5 μg/ml), 100%; in experiment [2] (U937, 10 μg/ml), 100%; in experiment [2] (U937, 20 μg/ml), 100%. For the same molecule, the “Inhibition rate of cell proliferation” value in experiment [5] (DU145, 5 μg/ml) is 51%; in [5] (DU145, 10 μg/ml), 76%; in experiment [5] (DU145, 20 μg/ml) it was 84%; in experiment [6] (T24, 5 μg/ml), 52%; in experiment [6] (T24, 10 μg/ml), 77%; in [6] (T24, 20 μg/ml) it was 87%.

Regarding `NC1CCCC12CCCC2N.[Cl][Pt]([Cl])([Cl])[Cl]` [Compound 5, Tetrachloro((S,S,S)-spiro[4.4]nonane-1,6-diamine)platinum(IV)], the “Inhibition rate of cell proliferation” value was 79% in experiment [6] (T24, 5 μg/ml); 86% in [6] (T24, 10 μg/ml); 80% in experiment [6] (T24, 20 μg/ml); 65% in [7] (LU99, 5 μg/ml); 84% in experiment [7] (LU99, 10 μg/ml); 91% in experiment [7] (LU99, 20 μg/ml). The “Inhibition rate of cell proliferation” value amounted to 90% in experiment [8] (MKN-45, 5 μg/ml); 93% in experiment [8] (MKN-45, 10 μg/ml); 87% in [8] (MKN-45, 20 μg/ml); 83% in experiment [9] (G-361, 5 μg/ml); 95% in [9] (G-361, 10 μg/ml); 98% in experiment [9] (G-361, 20 μg/ml).

As to `NC1CCCC12CCCC2N.[Cl][Pt]([Cl])([Cl])[Cl]` [Compound 6, tetrachloro((R,R,R)-spiro[4.4]nonane-1,6-diamine)platinum(IV)], the “Inhibition rate of cell proliferation” value in [6] (T24, 5 μg/ml) turned out to be 78%; in [6] (T24, 10 μg/ml), 81%; in experiment [6] (T24, 20 μg/ml), 81%; in [7] (LU99, 5 μg/ml) it was 89%; in experiment [7] (LU99, 10 μg/ml), 96%; in [7] (LU99, 20 μg/ml), 98%. Moreover, the “Inhibition rate of cell proliferation” value in [8] (MKN-45, 5 μg/ml) was determined as 88%; in experiment [8] (MKN-45, 10 μg/ml), 80%; in experiment [8] (MKN-45, 20 μg/ml), 76%; in experiment [9] (G-361, 5 μg/ml), 89%; in experiment [9] (G-361, 10 μg/ml), 96%; in [9] (G-361, 20 μg/ml) it was 98%.

Regarding `O=C1[O][Pt]2([NH][C@@H]3CCCC[C@H]3[NH]2)[O]C1=O` [Oxaliplatin, oxaliplatin, reference compound], the “Inhibition rate of cell proliferation” value in [1] (5 μg/ml) worked out at 58%; in [1] (10 μg/ml), 75%; in experiment [1] (20 μg/ml) it was 87%; in [2] (U937, 5 μg/ml), 67%; in experiment [2] (U937, 10 μg/ml), 90%; in experiment [2] (U937, 20 μg/ml), 99%. In addition, the “Inhibition rate of cell proliferation” value came to 90% in experiment [3] (Jurkat E6.1, 5 μg/ml); 94% in experiment [3] (Jurkat E6.1, 10 μg/ml); 97% in experiment [3] (Jurkat E6.1, 20 μg/ml); 73% in [4] (HL60, 5 μg/ml); 86% in [4] (HL60, 10 μg/ml); 93% in [4] (HL60, 20 μg/ml). Moreover, the “Inhibition rate of cell proliferation” value in [5] (DU145, 5 μg/ml) came to 46%; in [5] (DU145, 10 μg/ml), 71%; in experiment [5] (DU145, 20 μg/ml), 81%; in [6] (T24, 5 μg/ml) it was 38%; in experiment [6] (T24, 10 μg/ml), 43%; in experiment [6] (T24, 20 μg/ml) it was 48%. Further, the “Inhibition rate of cell proliferation” value in experiment [7] (LU99, 5 μg/ml) came out at 38%; in experiment [7] (LU99, 10 μg/ml) it was 40%; in experiment [7] (LU99, 20 μg/ml), 49%; in [8] (MKN-45, 5 μg/ml), 73%; in experiment [8] (MKN-45, 10 μg/ml), 82%; in [8] (MKN-45, 20 μg/ml) it was 87%. Moreover, the “Inhibition rate of cell proliferation” value in experiment [9] (G-361, 5 μg/ml) came out at 50%; in experiment [9] (G-361, 10 μg/ml), 59%; in experiment [9] (G-361, 20 μg/ml), 74%.
